Results: US20100261682A1, “Method and Means for the Treatment of Cachexia” (Bioneris AB, priority 2007, published 2010)

Legend:
[1] = tested on: cachectic MAC16 mice; test: Body composition of cachectic MAC16 mice after alpha-trinositol treatment (Example 2); assay type: in vivo, NMRI mice; details: for Body composition: Fat / Body composition: Lean mass / Body composition: Water: mean ± SD
Text: (§1) Animals. Pure strain male NMRI mice (average body weight 25 g) were transplanted with fragments of the MAC16 tumour subcutaneously into the flank by means of a trochar, selected from donor animals with established weight loss (Bibby M C et al., Characterization of transplantable adenocarcinoma in the mouse colon producing cachexia in the recipient animals. J Natl Cancer Inst 78 (1987) 539-546). Transplanted animals were given a rat and mouse breeding diet (Special Diet Services, Witham, UK) and water at lib. Weight loss was evident 10 to 12 days after tumour implantation. Just prior to the development of weight loss 24 animals were randomized into four groups (I-IV) of six animals each.
(§2) Administration of alpha-trinositol. A first experiment was started when the animals had lost about 5% of body weight. Aliquots (2.5 μl, Group I; 5 μl, Group II; 10 μl, Group III) of alpha-trinositol stock solution corresponding to doses of 10 mg/kg, 20 mg/kg, and 40 mg/kg for a 25 g animal were administered subcutaneously three times per day at 8.00, 12.00 and 16.00 hrs. The fourth group (Group IV; control) was given an intravenous injection of 10 μl of water. Body weight (FIG. 1), tumour volume (FIG. 2), and water and food intake were determined daily after the last injection.
At the end of the treatment described in Example 1 the mice were sacrificed, and their body composition was analyzed. […] The reduction of lean body mass is normally observed in cachectic patients and is a significant cause of morbidity. No significant change in water content was observed.

[2] = tested on: MAC16 tumour; test: Tumour volume in MAC16 tumour-bearing mice treated with alpha-trinositol (Example 1); assay type: in vivo, NMRI mice; details: 10 mg/kg s.c. three times per day
Text: as §1, §2

[3] = tested on: MAC16 tumour-bearing mice; test: Body weight and gastrocnemius muscle weight in MAC16 tumour-bearing mice (Example 4); assay type: in vivo, NMRI mice; details: 40 mg/kg s.c., 3 times per day, 5 days
[4] = tested on: 4E-BP1; test: Western blot of gastrocnemius muscle: phosphorylation of 4E-BP1; assay type: in vivo, NMRI mice; details: 40 mg/kg; 60% reduction in untreated tumour-bearing animals
Description: (§3) Administration of alpha-trinositol. Mice (n=6) bearing the MAC16 tumour were treated with AT (40 mg/kg) s.c., 3 times per day, for 5 days, while a control group received PBS. Protein synthesis and degradation were determined by the incorporation and release of L-[2,6-^3H]phenylalanine, as described in Smith et al., Cancer Res., 2005; 65:277-83. On the fourth day of treatment half of the group administered 0.4 mmol/L L-[2,6-^3H]phenylalanine in PBS (100 μl) by i.p. administration.
(§4) Western blot analysis Gastrocnemius muscle (10 mg) was homogenised in Phosphosafe™ Extraction Reagent (500 μl) and centrifuged at 15000 g for 15 min. Samples of the cytosolic proteins (5 μg) were loaded on either a 10% (mTOR, myosin, eIF4E and eIF4G) 12% (PKR, eIF2α and actin) or 15% (4E-BP1) sodium dodecylsulphate-polyacrylamide gel (SDS-PAGE) and electrophoresed at 180 V for approximately 1 h. The extent of phosphorylation of 4E-BP1, and the association of 4E-BP1 and eIF4G with eIF4E was determined by Western blotting when eIF4E was extracted from the muscle samples by m^7GTP-Sepharose 4B-affinity binding, as previously described Eley ey al., Biochem J., 2007; 407:113-20, by loading 20 μg of protein. […] Blots were scanned by a densitometer to quantify differences.

[5] = tested on: PIF (proteolysis inducing factor) induced protein degradation in murine myotubes; test: PIF-induced protein degradation in murine myotubes; assay type: cell-based; details: AT 100 μM, 2 h prior to addition of PIF
Description: To investigate the mechanism by which AT protects lean body mass in cachexia, further experiments were carried out in vitro using murine myotubes as a surrogate model of skeletal muscle. Incubation with either PIF or angiotensin II (Ang II) induced protein degradation with a characteristic bell-shaped dose-response curve as previously reported (Smith et al., 2004, Br. J. Cancer, and Tisdale et al., 2006, Cell. Sig) with the maximal effect of PIF at 4.2 nM and Ang II at 0.5 μM (FIGS. 5 and 8).

[6] = tested on: p42; test: Western blot of gastrocnemius muscle: p42; assay type: in vivo, NMRI mice; details: 40 mg/kg s.c., 3 times per day
Description: as §3, §4

[7] = tested on: 20S proteasome; test: 20S proteasome 'chymotrypsin-like' enzyme activity in gastrocnemius muscle; assay type: in vivo, NMRI mice; details: 40 mg/kg s.c., 3 times per day; after 4 days treatment
Description: as §3
Determination of proteasome activity The activity of the 20S proteasome was determined as the ‘chymotrypsin-like’ enzyme activity, the predominant proteolytic activity of the β5 subunits of the proteasome. Gastrocnemius muscles were rinsed with ice-cold PBS and homogenised in 20 mmol/L Tris-HCl (pH 7.5), 2 mmol/L ATP, 5 mmol/L MgCl2 and 1 mmol/L DTT followed by sonication. The sonicate was centrifuged for 10 minutes at 18,000×g at 4° C., and enzyme activity in the supernatant was determined by the method of Orino et al., FEBS Lett., 1991; 284:206-10, by determining the release of amino methyl coumarin (AMC) from the fluorogenic substrate LLVY-AMC. Activity was measured in the absence and presence of the specific proteasome inhibitor lactacystin (10 mmoles/L). Only lactacystin suppressible activity was considered to be proteasome specific.

[8] = tested on: mTOR; test: Western blot of gastrocnemius muscle: phosphorylated (Ser2448) mTOR; assay type: in vivo, NMRI mice; details: 40 mg/kg; after 4 days treatment
Description: as §3, §4

[9] = tested on: PIF-induced chymotrypsin-like enzyme activity (proteasome) in C2C12 myotubes; test: PIF-induced chymotrypsin-like enzyme activity in C2C12 myotubes; assay type: cell-based, murine; details: AT 100 μM, 4.2 nM PIF
Text: Protein degradation induced by PIF is mediated through up-regulation of the ubiquitin-proteasome pathway (Tisdale et al., 2004, Br. J. Cancer). […] A hexanoyl ester of AT (lipid soluble AT) has been produced as a slow release form, after hydrolysis by esterase.

[10] = alpha-Trinositol 10 (mg/ml as printed)
[11] = alpha-Trinositol 20 (mg/ml as printed)
[12] = alpha-Trinositol 40 (mg/ml as printed)

SMILES: O=P(O)(O)O[C@@H]1[C@H](OP(=O)(O)O)[C@H](O)[C@@H](O)[C@H](O)[C@H]1OP(=O)(O)O [alpha-trinositol, 1-D-Myo-inositol 1,2,6-triphosphate]
- absolute fat change from controls [1, 10]: −19 % by weight
- absolute lean mass change from controls [1, 10]: +11 % by weight
- Body composition: Fat ([1]; alpha-Trinositol 10 (mg/ml as printed), control 6.1 ± 2.1): 4.9 ± 2.3 % by weight
- Body composition: Lean mass ([1]; alpha-Trinositol 10 (mg/ml as printed), control 26.1 ± 1.6): 27.1 ± 3.0 % by weight
- Body composition: Water ([1]; alpha-Trinositol 10 (mg/ml as printed), control 67.8 ± 1.2): 68.0 ± 2.0 % by weight
- absolute fat change from controls [1, 11]: −46 % by weight
- absolute lean mass change from controls [1, 11]: +15 % by weight
- Body composition: Fat [1, 11]: 3.3 ± 0.5 % by weight
- Body composition: Lean mass [1, 11]: 28.6 ± 1.7 % by weight
- Body composition: Water [1, 11]: 68.1 ± 1.7 % by weight
- absolute fat change from controls [1, 12]: −39 % by weight
- absolute lean mass change from controls [1, 12]: +25 % by weight
- Body composition: Fat [1, 12]: 3.7 ± 1.9 % by weight
- Body composition: Lean mass [1, 12]: 30.7 ± 2.5 % by weight
- Body composition: Water [1, 12]: 65.6 ± 1.7 % by weight
- tumour inhibition [2]: did not produce any statistically significant effect
- gastrocnemius muscle weight compared to the control [3]: significantly higher
- weight loss compared to the control group [3]: significantly lower
- tumour-induced reduction in phosphorylation of 4E-BP1 (Thr37/46) [4]: completely attenuated
- effect on PIF-induced protein degradation [5]: completely attenuated protein degradation down to basal levels
- expression of p42 in gastrocnemius muscle [6]: down-regulates
- chymotrypsin activity (20S proteasome activity) in gastrocnemius muscle [7]: reduced down to levels found in normal non-tumour bearing mice
- level of the phosphorylated (Ser2448) form of mTOR in gastrocnemius muscle [8]: completely reversed up to the values found in non tumour-bearing animals
- effect on PIF-induced chymotrypsin-like enzyme activity [9]: completely attenuated
